We go through one compound from patent US8507506B2, “Theophylline derivative inhibits osteoporosis” (Kaohsiung Medical University, priority 2011, dated 2013).

Holding throughout (format): cell-based
Test [1] relates to NFATc1 protein in RAW264.7 cells. In words: Western blot, expression of NFATc1 induced by RANKL. Conditions: 5 μM, 7.5 μM and 10 μM, RANKL 24 hours, FIG. 13. How it is done:
The proteins were collected by scraping and were centrifuged (13,000 rpm, 4° C., 30 minutes). The supernatant was stored in an eppendorf in −80° C. • c) Concentrations of the proteins were examined by Bio-Red DC Protein Assay. After knowing the concentrations, the proteins were diluted to specific concentrations by adding ddH2O. One forth volume of the diluted proteins of sample buffer was added into the diluted proteins and was put in boiled water for 5 min and then was chilled on ice for 5 minutes. After short time centrifugation, the diluted proteins could be injected into wells of a gel. The gel was run at 100 V for 10 minutes until the proteins were driven to the intersection between a loading gel and a running gel. Then, the voltage was swopped to 200 V for 40 minutes. • d) A PVDF membrane was immersed in Methanol for 2 minutes. After two washes in ddH2O, the membrane was immersed in transfer buffer for 15 minutes. A SDS-PAGE was put on the membrane, and wet paper was flanked them. The proteins were transferred to the PVDF membrane using a semi-dry transfer at 20 V for 30 minutes. • e) The band of the PVDF membrane was trimmed and was added by suitable amount of blocking buffer (5% skim milk in washing buffer) and then was shaken for 1 hour in room temperature to block non specific bindings. Then, the band was covered by a diluted 1° antibody overnight in 4° C. […]
(In general: Immunoblotting shows a protein as a band on a membrane.)

Test [2] has as its system IL-6 secretion by RAW264.7 cells. In words: ELISA, RANKL-induced secretion of IL-6. The following applies: RAW264.7, ELISA, FIG. 7(A). How it is done: Under RANKL stimulation, mononuclear RAW264.7 cells can secrete pro-inflammatory cytokines such as TNF-α, IL-1, IL-6, etc. ELISA is used to measure that KMUP-1 influences RANKL to induce the secretion of pro-inflammatory cytokines. […] 10^5 cells were plated per well in 24-well plates. […] After 24 hours reaction, the reaction fluid was centrifuged (13,000 rpm, 4° C., 20 minutes), and then the supernatant was tasted by ELISA kit (R&D system and eBioscience™) to detect the amount of TNF-α, IL-1β, IL-6, and IL-10. The experimental process is followed with the instructions of the kit.
A general note: ELISA stands for enzyme-linked immunosorbent assay.

Test [3] relates to MMP-9 enzyme activity of RAW264.7 cells. In words: Gelatin zymography, enzyme activity of MMP-9 induced by RANKL. The following applies: 10 μM, RANKL 24 hours, FIG. 21. The protocol:
KMUP-1 influences there major up-stream signal transduction pathways which are related to RANK/RANKL. Western blot is used to estimate the amount of matrix metalloproteinase (MMP)-2 and MMP-9 which are related to the dissolution of osteoclast-like cells, and the enzyme activity of MMP-2 and MMP-9 are estimated via Gelatin Zymography. […] After 24 hours reaction, the reaction fluid was centrifuged (13,000 rpm, 4° C., 20 minutes), and then the supernatant was stored in −80° C. • b) 10% gel preparation. 10 mg gelatin was added by 1 ml ddH2O and then was heated in water bath until the solution was clear. • c) Concentrations of the proteins were examined by Bio-Red DC Protein Assay. After knowing the concentrations, the proteins were diluted to specific concentrations by adding ddH2O. One forth volume of the diluted proteins of sample buffer was added into the diluted proteins. After shaking, the diluted proteins could be added into wells of the gel. Subsequently, 1× running buffer was added with the gel, and then the gel was run at 100 V for 10 minutes until the proteins were driven to the intersection between a loading gel and a running gel. Then, the voltage was swopped to 200 V for 60 minutes. • d) After electrophoresis, the loading gel was discarded, and the left gel was washed by TritonX-100 buffer for 30 minutes in room temperature twice. […]

Test [4] relates to c-Fos mRNA in RAW264.7 cells. In words: RT-PCR, RANKL-induced mRNA expression of c-Fos. The following applies: for RANKL-induced mRNA expression level of c-Fos: RAW264.7 cells, 24 hours, CTL 100%, mean ± SEM. The text has this:
(§1) The culture medium was discarded. […] [table] f) Running • A.

For another test, the system named is RAW264.7 cells. In words: BrdU assay, proliferation induced by RANKL. The following applies: RAW264.7, 5 μM, 7.5 μM, 10 μM, FIG. 2. On the technique in general: Incorporation of labelled thymidine or its analogues reports DNA synthesis.
Test [5] has as its system MMP-9 mRNA in RAW264.7 cells. In words: RT-PCR, RANKL-induced mRNA expression of MMP-9. Conditions: for RANKL-induced mRNA expression level of MMP-9: RAW264.7 cells, 24 hours, CTL 100%, mean ± SEM.
Description: as §1

Test [6] has as its system Fra-1 mRNA in RAW264.7 cells. In words: RT-PCR, RANKL-induced mRNA expression of Fra-1. The following applies: for RANKL-induced mRNA expression level of Fra-1: RAW264.7 cells, 24 hours, CTL 100%, mean ± SEM.
Description: as §1

The mark [7] stands for this setting: 10 ng/ml RANKL, summary of Table 1.

Marks after values point to notes of the source that are not given here.

Consider `Cn1c(=O)c2c(ncn2CCN2CCN(c3ccccc3Cl)CC2)n(C)c1=O` [KMUP-1, 7-[2-[4-(2-Chlorophenyl)piperazin-1-yl]ethyl] theophylline], for which, in test [1], the “expression of NFATc1 induced by RANKL” value was “can efficiently inhibit the expression of NFATc1 induced by RANKL”. In addition, the “RANKL-induced secretion of IL-6” value in test [2] was “presents a dose dependent inhibition phenomenon”. Moreover, the “enzyme activity of MMP-9 induced by RANKL” value in test [3] is “can reduce the enzyme activity of MMP-2 and MMP-9”. Further, in test [4] (setting [7]), the “effect on mRNA expression of c-Fos induced by RANKL (in words)” value was “inhibits the mRNA expression”. For the same compound, the “RANKL-induced mRNA expression level of c-Fos” value was found to be 105.4 ± 8.1% in test [4] (RANKL 10 ng/ml + KMUP-1 1 μM); 100.3 ± 4.7% in test [4] (RANKL 10 ng/ml + KMUP-1 2.5 μM); 84.5 ± 5.2% ^b in test [4] (RANKL 10 ng/ml + KMUP-1 5 μM); 67.1 ± 4.5% ^b in test [4] (RANKL 10 ng/ml + KMUP-1 7.5 μM); 73.1 ± 6.3% ^b in test [4] (RANKL 10 ng/ml + KMUP-1 10 μM). For the same compound, the “cell proliferation induced by RANKL (BrdU assay)” value with RAW264.7 cells is “can inhibit the cell proliferation induced by RANKL”. In test [5] (setting [7]), the “effect on mRNA expression of MMP-9 induced by RANKL (in words)” value is “inhibits the mRNA expression”. Further, the “RANKL-induced mRNA expression level of MMP-9” value in test [5] (RANKL 10 ng/ml + KMUP-1 1 μM) was 1732.4 ± 168.9%; in test [5] (RANKL 10 ng/ml + KMUP-1 2.5 μM) it was 1619.9 ± 179.8%; in test [5] (RANKL 10 ng/ml + KMUP-1 5 μM) it was 1570.9 ± 159.3% ^b; in test [5] (RANKL 10 ng/ml + KMUP-1 7.5 μM), 1439.8 ± 188.8% ^b; in test [5] (RANKL 10 ng/ml + KMUP-1 10 μM), 1372.0 ± 175.6% ^b. Moreover, the “effect on mRNA expression of Fra-1 induced by RANKL (in words)” value in test [6] (setting [7]) is given as “inhibits the mRNA expression”. The “RANKL-induced mRNA expression level of Fra-1” value in test [6] (RANKL 10 ng/ml + KMUP-1 1 μM) was 244.1 ± 38.9% ^b; in test [6] (RANKL 10 ng/ml + KMUP-1 2.5 μM), 285.1 ± 44.8% ^b; in test [6] (RANKL 10 ng/ml + KMUP-1 5 μM) it was 310.1 ± 56.3% ^b; in test [6] (RANKL 10 ng/ml + KMUP-1 7.5 μM) it was 238.7 ± 49.9% ^b; in test [6] (RANKL 10 ng/ml + KMUP-1 10 μM), 265.2 ± 64.1% ^b.
